Data as given in US5047397A, “Linear analogs of atrial natriuretic peptides” (California Biotechnology Inc., priority 1988, dated 1991).
Where a SMILES comes first, the peptide text is derived from it. [ ]: non-standard residue; d: D form. The star is where a group is joined. Phenylacetyl(4-Ph) = O=C(Cc1ccc(-c2ccccc2)cc1)*; Propanoyl(3,3-Ph2) = O=C(CC(c1ccccc1)c1ccccc1)*; Acetyl(1-naphthyloxy) = O=C(COc1cccc2ccccc12)*; Acetyl(2-naphthyloxy) = O=C(COc1ccc2ccccc2c1)*; Acetyl(2-naphthyl) = O=C(Cc1ccc2ccccc2c1)*; Fmoc = O=C(OCC1c2ccccc2-c2ccccc21)*; Cyclohexylacetyl = O=C(CC1CCCCC1)*; Aib = CC(C)(N)C(=O)O; Ahx = NCCCCCC(=O)O; Ava = NCCCCC(=O)O; GABA = NCCCC(=O)O; NHiBu = CC(C)CN*; Sar = CNCC(=O)O; X3 = CCC(C)CN*

Biological target: T1, specific ANP receptor sites on BASM or BAE cells (Bos taurus, UniProt P10730)
T1 construct: specific receptor sites on BASM or BAE cells; endogenous in cells; host or cells: cultured BASM and BAE cells
T1 sequence (P10730 42-537): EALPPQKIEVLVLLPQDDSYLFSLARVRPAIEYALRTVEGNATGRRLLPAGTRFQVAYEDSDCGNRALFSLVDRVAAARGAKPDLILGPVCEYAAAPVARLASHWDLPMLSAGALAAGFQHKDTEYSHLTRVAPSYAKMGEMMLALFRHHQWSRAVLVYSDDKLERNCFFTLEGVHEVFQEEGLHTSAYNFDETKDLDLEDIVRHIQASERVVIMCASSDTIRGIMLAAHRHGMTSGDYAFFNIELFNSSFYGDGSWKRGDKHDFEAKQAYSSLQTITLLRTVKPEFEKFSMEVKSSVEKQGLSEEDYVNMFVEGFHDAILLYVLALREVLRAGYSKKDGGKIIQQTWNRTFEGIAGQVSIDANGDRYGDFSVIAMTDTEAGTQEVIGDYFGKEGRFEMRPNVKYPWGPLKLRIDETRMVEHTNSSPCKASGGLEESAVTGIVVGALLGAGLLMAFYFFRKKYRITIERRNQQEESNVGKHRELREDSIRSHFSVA
Assay: Competitive displacement receptor binding of (125I)-rANP(126-150) on cultured cells
Design: species or system bovine
Settings: concentration of unlabeled peptide displacing 50% of maximal binding of 0.5 nM (125I)-rANP(126-150); BASM or BAE cells
Source text: Analogous "competitive displacement" receptor binding assays are considered commonplace in the art for examining specific ligand-receptor interactions.
Assuming these ANP analogs act at one or more ANP receptor sites, then increased receptor affinity should reflect increased biological potency.

Ki(app) [nM]	SMILES
14.5	CC[C@H](C)[C@H](NC(=O)[C@H](CCCNC(=N)N)NC(=O)[C@H](CC(=O)O)NC(=O)[C@@H](NC(=O)[C@H](CCCNC(=N)N)NC(=O)CNC(=O)CNC(=O)Cc1ccc2ccccc2c1)[C@@H](C)CC)C(N)=O [AP314, (2-NA)--G--G--R--I--D--R--I--NH2] ({Acetyl(2-naphthyl)}-GGRIDRI-NH2)
50.4	CC[C@H](C)[C@H](NC(=O)[C@H](CCCNC(=N)N)NC(=O)[C@H](CC(=O)O)NC(=O)[C@@H](NC(=O)[C@H](CCCNC(=N)N)NC(=O)CNC(=O)CNC(=O)COc1cccc2ccccc12)[C@@H](C)CC)C(N)=O [AP316, (1-NOA)--G--G--R--I--D--R--I--NH2] ({Acetyl(1-naphthyloxy)}-GGRIDRI-NH2)
6.0	CC[C@H](C)[C@H](NC(=O)[C@H](CCCNC(=N)N)NC(=O)[C@H](CC(=O)O)NC(=O)[C@@H](NC(=O)[C@H](CCCNC(=N)N)NC(=O)CNC(=O)CNC(=O)COc1ccc2ccccc2c1)[C@@H](C)CC)C(N)=O [AP319, (2-NOA)--G--G--R--I--D--R--I--NH2] ({Acetyl(2-naphthyloxy)}-GGRIDRI-NH2)
47.4	CC[C@H](C)[C@H](NC(=O)[C@H](CCCNC(=N)N)NC(=O)[C@H](CC(=O)O)NC(=O)[C@@H](NC(=O)[C@H](CCCNC(=N)N)NC(=O)CN(C)C(=O)CNC(=O)Cc1ccc2ccccc2c1)[C@@H](C)CC)C(N)=O [AP320, (2-NA)--G--(Sar)--R--I--D--R--I--NH2] ({Acetyl(2-naphthyl)}-G[Sar]RIDRI-NH2)
33.0	CC[C@H](C)[C@H](NC(=O)[C@H](CCCNC(=N)N)NC(=O)[C@H](CC(=O)O)NC(=O)[C@@H](NC(=O)[C@H](CCCNC(=N)N)NC(=O)C(C)(C)NC(=O)CNC(=O)Cc1ccc2ccccc2c1)[C@@H](C)CC)C(N)=O [AP321, (2-NA)--G--(Aib)--R--I--D--R--I--NH2] ({Acetyl(2-naphthyl)}-G[Aib]RIDRI-NH2)
> 100	CC[C@H](C)[C@H](NC(=O)[C@H](CCCNC(=N)N)NC(=O)[C@H](CC(=O)O)NC(=O)[C@@H](NC(=O)[C@H](CCCNC(=N)N)NC(=O)CNC(=O)[C@@H](C)NC(=O)COc1ccc2ccccc2c1)[C@@H](C)CC)C(N)=O [AP322, (2-NOA)--A^ --G--R--I--D--R--I--NH2] ({Acetyl(2-naphthyloxy)}-[dA]GRIDRI-NH2)
162.6	CC[C@H](C)[C@H](NC(=O)[C@H](CCCNC(=N)N)NC(=O)[C@H](CC(=O)O)NC(=O)[C@@H](NC(=O)[C@H](CCCNC(=N)N)NC(=O)CCCCNC(=O)OCC1c2ccccc2-c2ccccc21)[C@@H](C)CC)C(N)=O [AP323, (FMOC)--NH(CH2)4 CO--R--I--D--R--I--NH2] ({Fmoc-Ava}-RIDRI-NH2)
48.5	CC[C@H](C)[C@H](NC(=O)[C@H](CCCNC(=N)N)NC(=O)[C@H](CC(=O)O)NC(=O)[C@@H](NC(=O)[C@H](CCCNC(=N)N)NC(=O)CCCCNC(=O)Cc1ccc2ccccc2c1)[C@@H](C)CC)C(N)=O [AP324, (2-NA)--NH(CH2)4 CO--R--I--D--R--I--NH2] ({Acetyl(2-naphthyl)-Ava}-RIDRI-NH2)
> 100	CC[C@H](C)[C@H](NC(=O)[C@H](CCCNC(=N)N)NC(=O)[C@H](CC(=O)O)NC(=O)[C@@H](NC(=O)[C@H](CCCNC(=N)N)NC(=O)CCCCCNC(=O)COc1ccc2ccccc2c1)[C@@H](C)CC)C(N)=O [AP325, (2-NOA)--NH(CH2)5 CO--R--I--D--R--I--NH2] ({Acetyl(2-naphthyloxy)-Ahx}-RIDRI-NH2)
184	CC[C@H](C)[C@H](NC(=O)[C@H](CCCNC(=N)N)NC(=O)[C@H](CC(=O)O)NC(=O)[C@@H](NC(=O)[C@H](CCCNC(=N)N)NC(=O)CCCNC(=O)Cc1ccc2ccccc2c1)[C@@H](C)CC)C(N)=O [AP327, (2-NA)--NH(CH2)3 CO--R--I-- D--R--I--NH2] ({Acetyl(2-naphthyl)-GABA}-RIDRI-NH2)
19.87	CCNC(=O)[C@@H](NC(=O)[C@H](CCCNC(=N)N)NC(=O)[C@H](CC(=O)O)NC(=O)[C@@H](NC(=O)[C@H](CCCNC(=N)N)NC(=O)CNC(=O)CNC(=O)Cc1ccc2ccccc2c1)[C@@H](C)CC)[C@@H](C)CC [AP328, (2-NA)--G--G--R--I--D--R--I--NH(ethyl)] ({Acetyl(2-naphthyl)}-GGRIDRI-NHEt)
147.78	CC[C@H](C)[C@H](NC(=O)[C@H](CCCNC(=N)N)NC(=O)[C@H](CC(=O)O)NC(=O)[C@@H](NC(=O)[C@H](CCCNC(=N)N)NC(=O)CCCCCNC(=O)Cc1ccc2ccccc2c1)[C@@H](C)CC)C(N)=O [AP329, (2-NA)--NH(CH2)5 CO--R--I--D--R--I--NH2] ({Acetyl(2-naphthyl)-Ahx}-RIDRI-NH2)
16.4	CC[C@H](C)[C@H](NC(=O)[C@H](CCCNC(=N)N)NC(=O)[C@H](CC(=O)O)NC(=O)[C@@H](NC(=O)[C@H](CCCNC(=N)N)NC(=O)CNC(=O)[C@@H](CO)NC(=O)Cc1ccc2ccccc2c1)[C@@H](C)CC)C(N)=O [AP330, (2-NA)--S^ --G--R--I--D--R--I--NH2] ({Acetyl(2-naphthyl)}-[dS]GRIDRI-NH2)
44.2	CC[C@H](C)[C@H](NC(=O)[C@H](CCCNC(=N)N)NC(=O)CNC(=O)CNC(=O)Cc1ccc2ccccc2c1)C(=O)N[C@@H](CC(=O)O)C(=O)N[C@@H](CCCNC(=N)N)C(=O)N[C@@H](CC(C)C)C(N)=O [AP332, (2-NA)--G--G--R--I--D--R--L--NH2] ({Acetyl(2-naphthyl)}-GGRIDRL-NH2)
106.4	CC[C@H](C)[C@H](NC(=O)[C@H](CCCNC(=N)N)NC(=O)CNC(=O)CNC(=O)Cc1ccc2ccccc2c1)C(=O)N[C@@H](CC(=O)O)C(=O)N[C@@H](CCCNC(=N)N)C(=O)N[C@H](C(N)=O)C(C)C [AP333, (2-NA)--G--G--R--I--D--R--V--NH2] ({Acetyl(2-naphthyl)}-GGRIDRV-NH2)
92.8	CC[C@H](C)[C@H](NC(=O)[C@H](CCCNC(=N)N)NC(=O)[C@H](CC(=O)O)NC(=O)[C@@H](NC(=O)[C@H](CCCNC(=N)N)NC(=O)CNC(=O)CNC(=O)CC1CCCCC1)[C@@H](C)CC)C(N)=O [AP334, (CHA)--G--G--R--I--D--R--I--NH2] (Cyclohexylacetyl-GGRIDRI-NH2)
82.6	CC[C@H](C)[C@H](NC(=O)[C@H](CCCNC(=N)N)NC(=O)[C@H](CC(=O)O)NC(=O)[C@@H](NC(=O)[C@H](C)NC(=O)CNC(=O)CNC(=O)Cc1ccc2ccccc2c1)[C@@H](C)CC)C(N)=O [AP338, (2-NA)--G--G--A--I--D--R--I--NH2] ({Acetyl(2-naphthyl)}-GGAIDRI-NH2)
20.0	CC[C@H](C)[C@H](NC(=O)[C@H](CCC(N)=O)NC(=O)[C@H](CC(=O)O)NC(=O)[C@@H](NC(=O)[C@H](CCCNC(=N)N)NC(=O)CNC(=O)CNC(=O)Cc1ccc2ccccc2c1)[C@@H](C)CC)C(N)=O [AP351, (2-NA)--G--G--R--I--D--Q--I--NH2] ({Acetyl(2-naphthyl)}-GGRIDQI-NH2)
120.0	CC[C@H](C)[C@H](NC(=O)[C@H](CCCNC(=N)N)NC(=O)CNC(=O)CNC(=O)COc1ccc2ccccc2c1)C(=O)N[C@@H](CC(=O)O)C(=O)N[C@@H](CCCNC(=N)N)C(=O)NCC(C)C [AP509] ({Acetyl(2-naphthyloxy)}-GGRIDR-NHiBu)
116.0	CC[C@H](C)[C@H](NC(=O)[C@H](CCCNC(=N)N)NC(=O)CNC(=O)CNC(=O)Cc1ccc2ccccc2c1)C(=O)N[C@@H](CC(=O)O)C(=O)N[C@@H](CCCNC(=N)N)C(=O)NCC(C)C [AP510] ({Acetyl(2-naphthyl)}-GGRIDR-NHiBu)
84.7	CCC(C)CNC(=O)[C@H](CCCNC(=N)N)NC(=O)[C@H](CC(=O)O)NC(=O)[C@@H](NC(=O)[C@H](CCCNC(=N)N)NC(=O)CNC(=O)CNC(=O)Cc1ccc2ccccc2c1)[C@@H](C)CC (stereo partly drawn) [AP511, (2-NA)GGRIDRNHCH2CH(CH3)CH3 CH3] ({Acetyl(2-naphthyl)}-GGRIDR-X3)

SMILES	Ki(app) [nM]
CC[C@H](C)[C@H](NC(=O)[C@H](CCCNC(=N)N)NC(=O)[C@H](CC(=O)O)NC(=O)[C@@H](NC(=O)[C@H](CCCNC(=N)N)NC(=O)CNC(=O)CNC(=O)Cc1ccc(-c2ccccc2)cc1)[C@@H](C)CC)C(N)=O [AP317, (4-BPA)--G--G--R--I--D--R--I--NH2] ({Phenylacetyl(4-Ph)}-GGRIDRI-NH2)	123.8
CC[C@H](C)[C@H](NC(=O)[C@H](CCCNC(=N)N)NC(=O)[C@H](CC(=O)O)NC(=O)[C@@H](NC(=O)[C@H](CCCNC(=N)N)NC(=O)CNC(=O)CNC(=O)COc1ccc2ccccc2c1)[C@@H](C)CC)C(=O)NCC(=O)N[C@@H](C)C(N)=O [AP318, (2-NOA)--G--G--R--I--D--R--I--G--A--NH2] ({Acetyl(2-naphthyloxy)}-GGRIDRIGA-NH2)	8.7
CC[C@H](C)[C@H](NC(=O)[C@H](CCCNC(=N)N)NC(=O)[C@H](CC(=O)O)NC(=O)[C@@H](NC(=O)[C@H](CCCNC(=N)N)NC(=O)CNC(=O)CNC(=O)CC(c1ccccc1)c1ccccc1)[C@@H](C)CC)C(=O)NCC(=O)N[C@@H](C)C(N)=O [AP331, (3-DPP)--G--G--R--I--D--R--I--G--A--NH2] ({Propanoyl(3,3-Ph2)}-GGRIDRIGA-NH2)	6.15
